Values joined by “and” are separate entries in the source; they are usually repeats but may differ in a detail not shown here. Equal entries are not always repeated. “Also recorded” adds a separate entry of the source. Where two headings read alike, the source gives them in different places.
Experiments:
[1] = system: Male Long Evans rats; test: In vivo antispermatogenic testing in Long Evans rats; details: for Response 200 mg/kg: 200 mg/kg single i.p. injection
[2] = system: M-1 Clone 20; human primary cyst epithelial cells (ADPKD cells); test: MTT cell proliferation assay with cAMP (FIGS. 9A-9B); format: cell-based; details: 48 hours
Method: Various compounds were tested for their effects on cell proliferation. In the study, the cell types were M-1 Clone 20, which is an immortalized cell line that mimics PKD, and human primary cyst epithelial cells, or ADPKD cells. The compounds were tested at 1 μM to 100 μM concentrations.
M-1 clone 20 (“M1 Clone 20”) cells are a model of PKD-like cells, which were created by stably transfecting parental “normal” M-1 immortalized renal cortical collecting duct cells with the C-terminal cytosolic domain (or C-tail) of mouse polycystin-1 (the protein product of the Pkd1 gene. The overexpressed C-tail acts in a dominant-negative fashion, conferring the PKD phenotype to these cells. Their characterization is described in: Sutters, M., Yamaguchi, T., Maser, R. L., Magenheimer, B. S., St. John, P. L., Abrahamson, D. R., Grantham, J. J. and Calvet, J. P. (2001) Polycystin-1 transforms the cAMP growth-responsive phenotype of M-1 cells. Kidney Int. 60, 484-494.
FIGS. 9A-9B include graphs that show cells grown in the vehicle (i.e. DMSO at two different volumes of 1 uL and 5 uL respectively), cAMP only, and then under the treatment drugs, all of which also had cAMP in them. The comparison drug used was 10 uM of gamendazole. […] Absorbance is a measure of cell number.
The comparison drug used was 10 uM Gamendazole. The MTT cell proliferation assay was carried out to assess cell number—cell proliferation is essentially cell number. […] Thus, absorbance is a measure of cell number, or cell proliferation. The reference bar is the third bar from the left (cAMP)—the degree of inhibition should be compared to that bar.

[3] = system: rats; test: Toxicology: organs sectioned and examined after dosing; format: in vivo; details: 25 mg/kg, two animals examined, findings per animal
Method: In at least two of the animals in each group, the pancreas, right kidney and part of the liver, heart, spleen, and lung were removed and evaluated for toxic effects.
The toxicology of animals receiving some of the compounds of the present invention IP and/or oral was examined. At the time of sacrifice samples of liver, pancreas, heart, lung, spleen and kidney were removed, visually inspected, and immersion fixed in Bouin's solution for a minimum of 48 hours. All organs were then sectioned and examined for evidence of necrosis, inflammation, hemorrhage, and possible tumors. The major veins in each tissue were also examined for distention, especially in the liver and pancreas, and any other abnormalities are compared to known histopathological states. In addition to the above, the heart was examined for evidence of fibrosis in the muscular walls, and to compare the thickness of the ventricular walls. The pancreas was examined mainly for calcium deposits, while the lung was checked for signs of any exudates or hemorrhage, especially in the alveolar spaces. Finally, the kidney was examined mainly for microscopic hemorrhages, tubular necrosis or alterations in the glomeruli in the cortex.
In this example, the effects of RC-MC-30 were compared with those of lonidamine in sexually mature rats. As discussed above, each of the rats (8 total) received a single injection and were sacrificed five days after injection and examined.

[4] = system: Salmonella Typhimurium TA 100; test: Ames test for mutagenicity (plate assay, colony count); details: 48 hours at 37° C.
[5] = system: Male Long Evans rats; details: rat, in vivo, 5 days
[6] = system: fruitfly; test: Reproduction of fruitfly; format: in vivo, Drosophila (fruitfly); details: provided to a fruitfly
Text: Several known Hsp90 inhibitors are listed above. With regard to HSP90, RC-MC-110 likely a novel inhibitor of the N-terminal ATP binding site or a novel site on Hsp90. It should be noted that mutants of Hsp90 in Drosophila (fruitfly) produce sterile males and females. […] Genetics. 1999 March; 151(3):1065-79.

[7] = animals responding out of animals surviving, five days following injection

Row | SMILES | Mortality (25 mg/kg) ([1]; 25 mg/kg single i.p. injection, […]) | Response 200 mg/kg [1, 7] | Inhibition of cell proliferation (MTT absorbance) ([2]; 10 uM) | Inhibition of cell proliferation (MTT absorbance) ([2]; 25 uM) | Toxicology: liver, lung, pancreas, spleen, heart and kidney (histology) [3] | Ames test (+)S9 0.1 mg/pl. ([4]; (+)S9 mix, 0.1 mg/pl.) | Ames test (+)S9 1 mg/pl. ([4]; (+)S9 mix, 1 mg/pl.) | Ames test (+)S9 10 mg/pl. ([4]; (+)S9 mix, 10 mg/pl.) | Ames test (−)S9 0.1 mg/pl. ([4]; (−)S9 mix, 0.1 mg/pl.) | Ames test (−)S9 1 mg/pl. ([4]; (−)S9 mix, 1 mg/pl.) | Ames test (−)S9 10 mg/pl. ([4]; (−)S9 mix, 10 mg/pl.) | Response 25 mg/kg ([1]; 25 mg/kg single i.p. injection, animals responding out of animals surviving, five days following injection) | Mortality (25 mg/kg) [5] | Mortality (200 mg/kg) [5] | Reproduction of fruitfly [6]
1 | O=C(O)/C=C/c1nn(Cc2ccc(Cl)cc2Cl)c2cc(Cl)ccc12 [JWS-1-190, 3-[1-(2,4-dichlorobenzyl)-6-chloro-1H-indazol-3-yl]-acrylic acid] | 0/5 | 0/0 and 2/5 | very effective | quite effective in inhibiting cell proliferation | The lung did have multiple, scattered hemorrhagic patches in the alveolar clusters; also recorded: liver, lung, pancreas, spleen, heart and kidney all appeared within normal limits | Pass | Pass | Pass | Pass | Pass | Pass |  |  |  | 
2 | O=C(O)c1nn(Cc2ccc(Cl)cc2Cl)c2ccccc12 [Lonidamine, 1-(2,4,-dichlorobenzyl)-1H-indazole-3-carboxylic acid] |  | 5/5 |  |  | liver, lung, pancreas, spleen, heart and kidney all appeared normal |  |  |  |  |  |  | 2/5 | 0/5 | 0/5 | inhibited reproduction

From patent publication US8362031B2, “Lonidamine analogues and treatment of polycystic kidney disease” (University of Kansas, priority 2004, dated 2013)
